# Test system: participants with SSc-RP
# Assay: Frequency of weekly RP attacks (all attacks; primary efficacy endpoint)
# Assay type: in vivo, human
# Details: for Weekly RP Attacks, Q3 / Weekly RP Attacks Change from Baseline, Max / Weekly RP Attacks Change from Baseline, Mean / Weekly RP Attacks Change from Baseline, Median / Weekly RP Attacks Change from Baseline, Min / Weekly RP Attacks Change from Baseline, Q1 / Weekly RP Attacks Change from Baseline, Q3 / Weekly RP Attacks Percent Change from Baseline, Max / Weekly RP Attacks Percent Change from Baseline, Mean / Weekly RP Attacks Percent Change from Baseline, Median / Weekly RP Attacks Percent Change from Baseline, Min / Weekly RP Attacks Percent Change from Baseline, Q1 / Weekly RP Attacks Percent Change from Baseline, Q3 / Weekly RP Attacks, Max / Weekly RP Attacks, Mean / Weekly RP Attacks, Median / Weekly RP Attacks, Min / Weekly RP Attacks, Q1 / Weekly RP Attacks Change from Baseline, Mean (SD) / Weekly RP Attacks Percent Change from Baseline, Mean (SD) / Weekly RP Attacks, Mean (SD): all attacks, tadalafil 5 mg daily
# Text: Percent change from baseline evaluation for frequency of weekly RP attacks were or will be used as the primary efficacy variable. The sponsor-developed participant-informed diary will be used to record data. Frequency of weekly RP attacks is defined as the total number of RP attacks divided by the number of days with available diary data within the last 7 days of each dosing period then multiplied by 7. Total number of RP attacks during the last 7 days of screening period divided by the number of days with available data then multiplied by 7 will be used as baseline for the analysis of all periods. The variable will be calculated as follows:
# Percentage change={(weekly RP attacks for the last 7 days of each dosing period−Baseline weekly RP attacks)/Baseline weekly RP attacks}*100%.
# Absolute change=weekly RP attacks for the last 7 days of each dosing period−Baseline weekly RP attacks
# Percent change from baseline evaluation for frequency of weekly RP attacks was and will be the primary efficacy endpoint. Frequency of weekly RP attacks is defined as the total number of RP attacks divided by the number of days with available diary data within the last 7 days of each dosing period then multiplied by 7. Total number of RP attacks during the last 7 days of screening period divided by the number of days with available data then multiplied by 7 will be used as baseline for the analysis of all periods.
# Percent change from baseline evaluation for frequency of weekly RP attacks were the primary efficacy endpoint. Data collected in the last 7 days of each dosing period were used for this analysis. Screening assessments were used as baseline for the analysis of all periods. No multiple comparison adjustment were used to control alpha for the multiple comparisons. Mixed effects model were used for analysis of the primary endpoint according to the crossover design. Other efficacy endpoints of continuous variables were analyzed using similar methodology. For nominal data, chi-square tests were applied. Generalized Estimating Equations method were used, as appropriate, for adjusting for potential confounding factors. In addition, the final analysis assessed whether in this study of severe Raynaud's disease participants, the minimally important difference, previously concluded of 14-15 points on the 100 point RCS scale had been achieved in the cilnidipine dose group. It also recorded the percentage of participants achieving a PASS (34 point difference from baseline on a 0-100 VAS) in each treatment group.
# [1] = by baseline RCS, first subgroup, cilnidipine 10 mg
# [2] = by baseline RCS, first subgroup, cilnidipine 20 mg
# [3] = by baseline RCS, first subgroup, pooled cilnidipine 10 mg and 20 mg
# [4] = pooled cilnidipine 10 mg and 20 mg
smiles,measurement,setting,value
"COCCOC(=O)C1=C(C)NC(C)=C(C(=O)OC/C=C/c2ccccc2)C1c1cccc([N+](=O)[O-])c1 (stereo not shown) [Cilnidipine, cilnidipine]","Weekly RP Attacks, Q3","excluding outliers, pooled cilnidipine 10 mg and 20 mg",23.00
same,"Weekly RP Attacks Change from Baseline, Max",[1],"−9.0, −9.0"
same,"Weekly RP Attacks Change from Baseline, Mean",[1],−9.00
same,"Weekly RP Attacks Change from Baseline, Median",[1],−9.00
same,"Weekly RP Attacks Change from Baseline, Min",[1],"−9.0, −9.0"
same,"Weekly RP Attacks Change from Baseline, Q1",[1],"−9.00, −9.00"
same,"Weekly RP Attacks Change from Baseline, Q3",[1],"−9.00, −9.00"
same,"Weekly RP Attacks Percent Change from Baseline, Max",[1],"−28.1, −28.1%"
same,"Weekly RP Attacks Percent Change from Baseline, Mean",[1],−28.13%
same,"Weekly RP Attacks Percent Change from Baseline, Median",[1],−28.13%
same,"Weekly RP Attacks Percent Change from Baseline, Min",[1],"−28.1, −28.1%"
same,"Weekly RP Attacks Percent Change from Baseline, Q1",[1],"−28.13, −28.13%"
same,"Weekly RP Attacks Percent Change from Baseline, Q3",[1],"−28.13, −28.13%"
same,"Weekly RP Attacks, Max",[1],"23.0, 23.0"
same,"Weekly RP Attacks, Mean",[1],23.00
same,"Weekly RP Attacks, Median",[1],23.00
same,"Weekly RP Attacks, Min",[1],"23.0, 23.0"
same,"Weekly RP Attacks, Q1",[1],"23.00, 23.00"
same,"Weekly RP Attacks, Q3",[1],"23.00, 23.00"
same,"Weekly RP Attacks Change from Baseline, Max",[2],−4.3
same,"Weekly RP Attacks Change from Baseline, Mean",[2],−6.67
same,"Weekly RP Attacks Change from Baseline, Median",[2],−6.67
same,"Weekly RP Attacks Change from Baseline, Min",[2],−9.0
same,"Weekly RP Attacks Change from Baseline, Q1",[2],−9.00
same,"Weekly RP Attacks Change from Baseline, Q3",[2],−4.33
same,"Weekly RP Attacks Percent Change from Baseline, Max",[2],−45.0%
same,"Weekly RP Attacks Percent Change from Baseline, Mean",[2],−45.71%
same,"Weekly RP Attacks Percent Change from Baseline, Median",[2],−45.71%
same,"Weekly RP Attacks Percent Change from Baseline, Min",[2],−46.4%
same,"Weekly RP Attacks Percent Change from Baseline, Q1",[2],−46.43%
same,"Weekly RP Attacks Percent Change from Baseline, Q3",[2],−45.00%
same,"Weekly RP Attacks, Max",[2],11.0
same,"Weekly RP Attacks, Mean",[2],8.00
same,"Weekly RP Attacks, Median",[2],8.00
same,"Weekly RP Attacks, Min",[2],5.0
same,"Weekly RP Attacks, Q1",[2],5.00
same,"Weekly RP Attacks, Q3",[2],11.00
same,"Weekly RP Attacks Change from Baseline, Max",[3],−4.3
same,"Weekly RP Attacks Change from Baseline, Mean",[3],−7.44
same,"Weekly RP Attacks Change from Baseline, Median",[3],−9.00
same,"Weekly RP Attacks Change from Baseline, Min",[3],−9.0
same,"Weekly RP Attacks Change from Baseline, Q1",[3],−9.00
same,"Weekly RP Attacks Change from Baseline, Q3",[3],−4.33
same,"Weekly RP Attacks Percent Change from Baseline, Max",[3],−28.1%
same,"Weekly RP Attacks Percent Change from Baseline, Mean",[3],−39.85%
same,"Weekly RP Attacks Percent Change from Baseline, Median",[3],−45.00%
same,"Weekly RP Attacks Percent Change from Baseline, Min",[3],−46.4%
same,"Weekly RP Attacks Percent Change from Baseline, Q1",[3],−46.43%
same,"Weekly RP Attacks Percent Change from Baseline, Q3",[3],−28.13%
same,"Weekly RP Attacks, Max",[3],23.0
same,"Weekly RP Attacks, Mean",[3],13.00
same,"Weekly RP Attacks, Median",[3],11.00
same,"Weekly RP Attacks, Min",[3],5.0
same,"Weekly RP Attacks, Q1",[3],5.00
same,"Weekly RP Attacks, Q3",[3],23.00
same,"Weekly RP Attacks Change from Baseline, Max",cilnidipine 10 mg,"−9.0, −9.0"
same,"Weekly RP Attacks Change from Baseline, Mean (SD)",cilnidipine 10 mg,−9.00
same,"Weekly RP Attacks Change from Baseline, Median",cilnidipine 10 mg,−9.00
same,"Weekly RP Attacks Change from Baseline, Min",cilnidipine 10 mg,"−9.0, −9.0"
same,"Weekly RP Attacks Change from Baseline, Q1",cilnidipine 10 mg,"−9.00, −9.00"
same,"Weekly RP Attacks Change from Baseline, Q3",cilnidipine 10 mg,"−9.00, −9.00"
same,"Weekly RP Attacks Percent Change from Baseline, Max",cilnidipine 10 mg,"−28.1, −28.1%"
same,"Weekly RP Attacks Percent Change from Baseline, Mean (SD)",cilnidipine 10 mg,−28.13%
same,"Weekly RP Attacks Percent Change from Baseline, Median",cilnidipine 10 mg,−28.13%
same,"Weekly RP Attacks Percent Change from Baseline, Min",cilnidipine 10 mg,"−28.1, −28.1%"
same,"Weekly RP Attacks Percent Change from Baseline, Q1",cilnidipine 10 mg,"−28.13, −28.13%"
same,"Weekly RP Attacks Percent Change from Baseline, Q3",cilnidipine 10 mg,"−28.13, −28.13%"
same,"Weekly RP Attacks, Max",cilnidipine 10 mg,"23.0, 23.0"
same,"Weekly RP Attacks, Mean (SD)",cilnidipine 10 mg,23.00
same,"Weekly RP Attacks, Median",cilnidipine 10 mg,23.00
same,"Weekly RP Attacks, Min",cilnidipine 10 mg,"23.0, 23.0"
same,"Weekly RP Attacks, Q1",cilnidipine 10 mg,"23.00, 23.00"
same,"Weekly RP Attacks, Q3",cilnidipine 10 mg,"23.00, 23.00"
same,"Weekly RP Attacks Change from Baseline, Max",cilnidipine 20 mg,−4.3
same,"Weekly RP Attacks Change from Baseline, Mean (SD)",cilnidipine 20 mg,−6.67 (3.300)
same,"Weekly RP Attacks Change from Baseline, Median",cilnidipine 20 mg,−6.67
same,"Weekly RP Attacks Change from Baseline, Min",cilnidipine 20 mg,−9.0
same,"Weekly RP Attacks Change from Baseline, Q1",cilnidipine 20 mg,−9.00
same,"Weekly RP Attacks Change from Baseline, Q3",cilnidipine 20 mg,−4.33
same,"Weekly RP Attacks Percent Change from Baseline, Max",cilnidipine 20 mg,−45.0%
same,"Weekly RP Attacks Percent Change from Baseline, Mean (SD)",cilnidipine 20 mg,−45.71 (1.010) Percent
same,"Weekly RP Attacks Percent Change from Baseline, Median",cilnidipine 20 mg,−45.71%
same,"Weekly RP Attacks Percent Change from Baseline, Min",cilnidipine 20 mg,−46.4%
same,"Weekly RP Attacks Percent Change from Baseline, Q1",cilnidipine 20 mg,−46.43%
same,"Weekly RP Attacks Percent Change from Baseline, Q3",cilnidipine 20 mg,−45.00%
same,"Weekly RP Attacks, Max",cilnidipine 20 mg,11.0
same,"Weekly RP Attacks, Mean (SD)",cilnidipine 20 mg,8.00 (4.243)
same,"Weekly RP Attacks, Median",cilnidipine 20 mg,8.00
same,"Weekly RP Attacks, Min",cilnidipine 20 mg,5.0
same,"Weekly RP Attacks, Q1",cilnidipine 20 mg,5.00
same,"Weekly RP Attacks, Q3",cilnidipine 20 mg,11.00
same,"Weekly RP Attacks Change from Baseline, Max",[4],−4.3
same,"Weekly RP Attacks Change from Baseline, Mean (SD)",[4],−7.44 (2.694)
same,"Weekly RP Attacks Change from Baseline, Median",[4],−9.00
same,"Weekly RP Attacks Change from Baseline, Min",[4],−9.0
same,"Weekly RP Attacks Change from Baseline, Q1",[4],−9.00
same,"Weekly RP Attacks Change from Baseline, Q3",[4],−4.33
same,"Weekly RP Attacks Percent Change from Baseline, Max",[4],−28.1%
same,"Weekly RP Attacks Percent Change from Baseline, Mean (SD)",[4],−39.85 (10.180) Percent
same,"Weekly RP Attacks Percent Change from Baseline, Median",[4],−45.00%
same,"Weekly RP Attacks Percent Change from Baseline, Min",[4],−46.4%
same,"Weekly RP Attacks Percent Change from Baseline, Q1",[4],−46.43%
same,"Weekly RP Attacks Percent Change from Baseline, Q3",[4],−28.13%
same,"Weekly RP Attacks, Max",[4],23.0
same,"Weekly RP Attacks, Mean (SD)",[4],13.00 (9.165)
same,"Weekly RP Attacks, Median",[4],11.00
same,"Weekly RP Attacks, Min",[4],5.0
same,"Weekly RP Attacks, Q1",[4],5.00
same,"Weekly RP Attacks, Q3",[4],23.00
same,reduction in weekly attack frequency (primary endpoint),"cilnidipine 20 mg, 19% with placebo",43%
same,"reduction in weekly attack frequency, typical attacks",pooled cilnidipine monotherapy or cilnidipine plus tadalafil treated patients (n=7),−31 to −40%
same,Attacks reduced,summary of data (Table S),43%_vs 23% with
